The term IC50 denotes the concentration that gives 50% inhibition.

A short description of assay [1]: Inhibition of Escherichia coli WecA incubated for 2 hrs using UDP-Glucosamine-C6-FITC substrate by reversed-phase HPLC analysis. On the set-up: species or system Escherichia coli BL21.
Assay [2] in a line: Inhibition of N-terminal 6x-His-tagged Hydrogenivirga-sp. 128-5-R1-1 MraY expressed in Escherichia coli NiCo21(DE3) incubated for 2 hrs by reversed-phase HPLC analysis.
Assay [3] deals with T1, UDP-N-acetylglucosamine--dolichyl-phosphate N-acetylglucosaminephosphotransferase (Homo sapiens, UniProt Q9H3H5).
T1 sequence (Q9H3H5 whole entry): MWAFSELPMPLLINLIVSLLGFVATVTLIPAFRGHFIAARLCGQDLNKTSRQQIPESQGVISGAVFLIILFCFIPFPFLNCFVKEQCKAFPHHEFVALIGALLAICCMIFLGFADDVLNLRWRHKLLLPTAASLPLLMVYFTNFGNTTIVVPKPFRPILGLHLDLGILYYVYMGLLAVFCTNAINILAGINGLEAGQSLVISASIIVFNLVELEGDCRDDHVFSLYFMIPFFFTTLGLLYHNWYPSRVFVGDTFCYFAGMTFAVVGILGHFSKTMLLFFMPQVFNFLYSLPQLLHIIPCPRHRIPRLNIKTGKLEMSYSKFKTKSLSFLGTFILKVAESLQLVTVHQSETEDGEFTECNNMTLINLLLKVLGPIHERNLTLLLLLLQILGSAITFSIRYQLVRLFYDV
In words: Inhibition of human DPAGT1 expressed in HEK293 (Expi293) cells incubated for 2 hrs using UDP-GlcN-Cg-FITC and alpha-dihydroundecap-renyl phosphate by reversed-phase HPLC analysis. It is filed as cell-based.

A short description of assay [4]: Inhibition of N-terminal His9-tagged Methanocaldococcus jannaschii DSM 2661 AglH incubated for 2 hrs using UDP-GlcN-Cg-FITC and alpha-dihydroundecap-renyl phosphate by reversed-phase HPLC analysis.
Assay [5] can be described thus: Inhibition of Mycobacterium tuberculosis WecA.
The next assay deals with PD002. In words: Inhibition of cell migration in human PD002 cells at 0.1 uM incubated for 0.5 hrs by crystal violet staining based Boyden chamber assay. It is filed as functional.
The subject of the next assay is HCT-116. Briefly: Cytotoxicity in human HCT-116 cells assessed as reduction in cell viability incubated for 72 hrs by MTT assay. The conditions noted are these: HCT-116, 72 h. It is filed as functional, cell-based. (Tetrazolium dyes change colour on reduction, which living cells bring about.)
In the next assay the test system is DLD-1. Briefly: Cytotoxicity in human DLD-1 cells assessed as reduction in cell viability incubated for 72 hrs by MTT assay. The class given is functional, cell-based. The conditions noted are these: DLD-1, 72 h.
The test system of another assay is ASPC1. In words: Cytotoxicity in human ASPC1 cells assessed as reduction in cell viability incubated for 72 hrs by MTT assay. Particulars: ASPC1, 72 h. The class given is functional, cell-based.
The next assay concerns CAPAN-1. In words: Cytotoxicity in human CAPAN-1 cells assessed as reduction in cell viability incubated for 72 hrs by MTT assay. Particulars: CAPAN-1, 72 h. It is filed as functional, cell-based.
Assay [6] is described as follows: Cytotoxicity in human hTERT-HPNE cells assessed as reduction in cell viability incubated for 72 hrs by MTT assay. The class given is cell-based.
The subject of a further assay is PANC-1. In words: Cytotoxicity in human PANC-1 cells assessed as reduction in cell viability incubated for 72 hrs by MTT assay. It is filed as functional, cell-based. The conditions noted are these: PANC-1, 72 h.
The nature of assay [7]: Inhibition of Mycobacterium tuberculosis WecA by fluorescence based assay.
In another assay the test system is SiHa. In words: Cytotoxicity in human SiHa cells assessed as reduction in cell viability incubated for 72 hrs by MTT assay. The class given is functional, cell-based.
Assay [8] in a line: Cytotoxicity in mouse L1210 cells assessed as reduction in cell viability incubated for 72 hrs by MTT assay. Particulars: L1210, 72 h.
In another assay the test system is Vero. In words: Cytotoxicity in African green monkey Vero cells assessed as reduction in cell viability incubated for 72 hrs by MTT assay. The class given is cell-based. Particulars: Chlorocebus sabaeus.
A further assay deals with KB. In words: Cytotoxicity in human KB cells assessed as reduction in cell viability incubated for 72 hrs by MTT assay. It is filed as functional, cell-based.
Assay [9] can be described thus: Cytotoxicity in human PD002 cells assessed as reduction in cell viability incubated for 72 hrs by MTT assay. It is filed as functional, cell-based. Particulars: PD002, 72 h.

Active and inactive are the calls of the source. The rule behind the calls is not given here. Bounds are passed on as bounds.

Take `CO[C@H]1[C@@H](O)[C@H](n2ccc(=O)[nH]c2=O)O[C@@H]1[C@@H](O[C@H]1OC(CNCc2ccc(N3CCC(Oc4ccc(OC(F)(F)F)cc4)CC3)cc2)=C[C@H](O)[C@@H]1O)C(N)=O`: the IC50 in assay [1], in [2], in [3] and in assay [4] was greater than 50 µM each time.

In assay [5], `CCCCc1ccc(NC(=O)C2=CCN(C)[C@@H]([C@H](O[C@@H]3O[C@H](CN)[C@@H](O)[C@H]3O)[C@H]3O[C@@H](n4ccc(=O)[nH]c4=O)[C@H](O)[C@@H]3O)C(=O)N2C)cc1` yielded a 50% inhibitory concentration (IC50) of 0.084 µM.

On to `Nc1ccn([C@@H]2O[C@H](CO)[C@@H](O)C2(F)F)c(=O)n1`, for which the inhibition entry in the assay on PD002 was “Active”.

For `CO[C@H]1[C@@H](OC)[C@H](n2ccc(=O)[nH]c2=O)O[C@@H]1[C@@H](O[C@H]1OC(C(=O)NCc2ccc(N3CCC(Oc4ccc(OC(F)(F)F)cc4)CC3)cc2)=C[C@H](O)[C@@H]1O)C(N)=O`, the half-maximal inhibitory concentration (IC50) in [1] came to 10 µM; in assay [2] it was 5 µM; in assay [3], 20 µM; in assay [4], 30 µM.

As to `NC(=O)[C@H](O[C@H]1OC(C(=O)NCc2ccc(N3CCC(Oc4ccc(OC(F)(F)F)cc4)CC3)cc2)=C[C@H](O)[C@@H]1O)[C@H]1O[C@@H](n2ccc(=O)[nH]c2=O)[C@H](O)[C@@H]1O`, the IC50 in assay [1] is 30 µM; in assay [2] it was greater than 50 µM; in [3], greater than 50 µM; in assay [4], greater than 50 µM.

With `CO[C@H]1[C@@H](OC)[C@H](n2ccc(=O)[nH]c2=O)O[C@@H]1[C@@H](O[C@H]1OC(C(=O)N[C@H]2CCCCNC2=O)=C[C@H](O)[C@@H]1O)C(N)=O`, the IC50 is 0.06 µM in assay [1]; greater than 50 µM in [2]; greater than 50 µM in the assay with HCT-116; greater than 50 µM in the assay with DLD-1; greater than 50 µM with ASPC1; 4.5 µM in assay [3]. Moreover, the IC50 was greater than 50 µM with CAPAN-1; greater than 50 µM in [6]; greater than 50 µM in the assay on PANC-1; 0.06 µM in assay [7]; 2.5 µM in assay [4]; greater than 50 µM in the assay on SiHa. Besides, the 50% inhibitory concentration (IC50) (in assay [8]; with Vero; in the assay with KB; in assay [9]) was greater than 50 µM throughout.

`CO[C@@H]1[C@H](O)[C@@H]([C@@H](O[C@H]2OC(CNCc3ccc(N4CCC(Oc5ccc(OC(F)(F)F)cc5)CC4)cc3)=C[C@H](O)[C@@H]2O)C(N)=O)O[C@H]1n1ccc(=O)[nH]c1=O`: the IC50 in [1], in assay [2], in assay [3] and in assay [4] was greater than 50 µM each time.

As for `CO[C@@H]1[C@H](O)[C@@H]([C@@H](O[C@H]2OC(C(=O)NCc3ccc(N4CCC(Oc5ccc(OC(F)(F)F)cc5)CC4)cc3)=C[C@H](O)[C@@H]2O)C(N)=O)O[C@H]1n1ccc(=O)[nH]c1=O`, the IC50 in assay [1] is 20 µM; in assay [2], greater than 50 µM; in the assay with HCT-116 it was 25 µM; with DLD-1 it was 35 µM; with ASPC1, 30 µM; with CAPAN-1 it was 40 µM. Further, the concentration for half-maximal inhibition (IC50) in assay [6] is greater than 50 µM; in the assay on PANC-1, 45 µM; in [4] it was 15 µM; in the assay on SiHa it was 25 µM; in assay [8], greater than 50 µM; with Vero it was greater than 50 µM. Besides, the values for the half-maximal inhibitory concentration (IC50) (in the assay on KB; in assay [9]) were 35 µM and 50 µM, respectively.

With `NC[C@H]1O[C@@H](O[C@H]([C@H]2O[C@@H](n3ccc(=O)[nH]c3=O)[C@H](O)[C@@H]2O)[C@H](NCCCC(=O)NCc2ccc(N3CCC(Oc4ccc(OC(F)(F)F)cc4)CC3)cc2)C(N)=O)[C@H](O)[C@@H]1O`, the half-maximal inhibitory concentration (IC50) in [1], in [2], in [3] and in [4] was 0.01 µM each time.

In the case of `CO[C@H]1[C@@H](O)[C@H](n2ccc(=O)[nH]c2=O)O[C@@H]1[C@@H](O[C@H]1OC(C(=O)N[C@H]2CCCCNC2=O)=C[C@H](O)[C@@H]1O)C(N)=O` [CAPURAMYCIN], the IC50 in [1] was greater than 50 µM; in assay [2], 0.13 µM; in the assay on HCT-116, greater than 50 µM; in the assay on DLD-1, greater than 50 µM; with ASPC1, greater than 50 µM; in assay [3], greater than 50 µM. The half-maximal inhibitory concentration (IC50) (in the assay on CAPAN-1; in assay [6]; with PANC-1; in assay [4]; in the assay on SiHa; in [8]) was greater than 50 µM in each case. The IC50 (with Vero; with KB; in assay [9]) was greater than 50 µM throughout.

Consider `NC(=O)[C@H](O[C@H]1OC(C(=O)N[C@H]2CCCCNC2=O)=C[C@H](O)[C@@H]1O)[C@H]1O[C@@H](n2ccc(=O)[nH]c2=O)[C@H](O)[C@@H]1O`, for which the IC50 is 35 µM in [1], greater than 50 µM in [2], greater than 50 µM in [3] and greater than 50 µM in [4].

On to `CO[C@@H]1[C@H](O)[C@@H]([C@@H](O[C@H]2OC(C(=O)N[C@H]3CCCCNC3=O)=C[C@H](O)[C@@H]2O)C(N)=O)O[C@H]1n1ccc(=O)[nH]c1=O`, for which the IC50 turned out to be 30 µM in assay [1], 8.5 µM in [2], 11.5 µM in assay [3] and 20 µM in [4].
